Measured values reported in patent US20140350014A1, “COMPOUNDS FOR INHIBITING THE INTERACTION OF BCL2 WITH BINDING PARTNERS” (NOVARTIS AG, priority 2011, published 2014).

What was measured:
[1] = target: BCL-2 binding to BAK peptide (Homo sapiens, UniProt P10415); assay: BCL2 SPR solution inhibition assay, BAK peptide surface (Biacore A100); conditions: read-out: BCL2_SPR IC50 BAK
Excerpt: (§1) 33The present method includes utility of a Surface plasmon resonance (SPR)-based biosensor (Bia34core™′ GE Healthcare, Uppsala, Sweden) to characterize BCL-2 inhibitors. 35
(§2) 36Biacore™ utilizes the phenomenon of surface plasmon resonance (SPR) to detect and measure 37binding interactions. In a typical Biacore experiment, one of the interacting molecules (ligand) is i38mmobilized on a flexible dextran matrix while the interacting partner (analyte) is allowed to fl39ow across that surface. A binding interaction results in an increase in mass on the sensor surface 40and a corresponding direct change in the refractive index of the medium in the vicinity of the 41sensor surface. Changes in refractive index or signal are recorded in resonance units (R.U.) Signal 42changes due to association and dissociation of complexes are monitored in a non-invasive manne43r, continuously and in real-time, the results of which are reported in the form of a sensorgram.44
(§3) The SPR assay is con45figured to examine solution inhibition of BCL-2 binding to peptide derivatized sensor surfa46ces to generate IC50 values as a measure of inhibitor potency.
(§4) Biacore™ A100 (GE Healthcare, Uppsala, Sweden) was used to conduct all experiments reported herein. Sensor surface preparation and all interaction analyses experiments were performed at 25° C. Reagents were purchased from GE Healthcare. Running buffer containing 10 mM Hepes, pH7.4, 150 mM sodium chloride, 1.25 mM Dithiothreitol, 3% Dimethyl sulfoxide and 0.05% polysorbate 20 were utilized throughout all analyses.
(§5) Biotinylated BAK, BAD and NOXA peptides were diluted to 10 nM in running buffer and captured onto a sensor surface pre-derivatized with streptavidin (sensor chip SA) to peptide surface densities in the range 50-100 R.U. Peptide captured surfaces were blocked with 500 μM PEO2-Biotin.
(§6) Interaction analyses were performed by first equilibrating each sample within a 6 point three fold compound dilution series in the range 16 μM to […] with 56 nM BCL-2 for one hour during instrument start-up procedures. Protein compound mixtures were then injected over each peptide surface in parallel for 60 seconds at a flow-rate of 30 μL/min. 56 nM BCL-2 control samples were also prepared and run at regular intervals during the assay. Surface regeneration was performed at the end of each analysis cycle by two 30 second injections of 10 mM Glycine, pH 2.5, 1M Sodium Chloride, 0.05% polysorbate 20. Samples and control compound samples were run in duplicate and controls are also run at regular intervals during the assay to monitor surface and assay performance.
(§7) Data analyses are carried out using Biacore™ A100 evaluation software v1.1 to validate assay quality. Binding level report points were used relative to BCL-2 control samples to calculate % inhibition values for each compound protein mixture. […] The range of data shown in table 1 represents the high and low IC50 values obtained from multiple experiments.

[2] = target: BCL-2 binding to BAD peptide (Homo sapiens, UniProt P10415); assay: BCL2 SPR solution inhibition assay, BAD peptide surface (Biacore A100); conditions: read-out: BCL2_SPR IC50 BAD
Excerpt: as §1, §2, §3, §4, §5, §6, §7

Chain of BCL-2 binding to BAD peptide (P10415 whole entry): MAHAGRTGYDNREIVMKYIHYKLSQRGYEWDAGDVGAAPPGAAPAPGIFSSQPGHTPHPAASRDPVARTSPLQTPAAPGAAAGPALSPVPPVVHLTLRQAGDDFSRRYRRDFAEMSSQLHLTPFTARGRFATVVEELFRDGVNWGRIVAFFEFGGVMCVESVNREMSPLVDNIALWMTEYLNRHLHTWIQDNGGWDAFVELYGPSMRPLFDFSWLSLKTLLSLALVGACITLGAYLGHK
Chain of BCL-2 binding to BAK peptide (P10415 whole entry): as above

| Compound | IC50 [1] [µM] | IC50 [2] [µM] |
| --- | --- | --- |
| CCCCN(CCCC)C(=O)c1nn(-c2ccc(-c3ccc(N)nc3)cc2C(=O)N2Cc3ccccc3C[C@H]2CO)c(C)c1Cl [Example 6] | 0.21 to 0.252 | 0.231 to 0.288 |
| CCCCN(CCCC)C(=O)c1cc(C)n(-c2ccc(N3CCOCC3=O)cc2C(=O)N2Cc3ccccc3C[C@H]2CO)n1 [Example 19] | 6.06 to 6.6 | 11.2 to 12.2 |
| CCCCN(CCCC)C(=O)c1nn(-c2ccc(-c3cnn(Cc4ccccc4)c3)cc2C(=O)N2Cc3ccccc3C[C@H]2CO)c(C)c1Cl [Example 12] | 0.103 to 0.115 | 0.127 to 0.148 |
| CCCCN(CCCC)C(=O)c1cc(C)n(-c2ccc(-c3cc(OC)c(OC)c(OC)c3)cc2C(=O)N2Cc3ccccc3C[C@H]2CO)n1 [Example 56] | 0.215 to 0.238 | 0.284 to 0.296 |
| CCCCN(CCCC)C(=O)c1cc(C)n(-c2ccc(-c3ccc(Cl)c(C(N)=O)c3)cc2C(=O)N2Cc3ccccc3C[C@H]2CO)n1 [Example 34] | 0.426 to 0.429 | 0.6 to 0.623 |
| CCCCN(CCCC)C(=O)c1cc(C)n(-c2ccc(-c3ccc(F)c(F)c3)cc2C(=O)N2Cc3ccccc3C[C@H]2CO)n1 [Example 44] | 2.5 to 2.96 | 2.09 to 2.18 |
| CCCCN(CCCC)C(=O)c1cc(C)n(-c2ccc(-c3ccc(S(=O)(=O)N4CCOCC4)cc3)cc2C(=O)N2Cc3ccccc3C[C@H]2CO)n1 [Example 48] | 0.665 to 0.675 | 0.953 to 0.964 |
| CCCCN(CCCC)C(=O)c1cc(C)n(-c2ccc(-c3ccc(C(=O)O)cc3)cc2C(=O)N2Cc3ccccc3C[C@H]2CO)n1 [Example 13] | 0.105 to 0.129 | 0.133 to 0.165 |
| CCCCN(CCCC)C(=O)c1cc(C)n(-c2ccc(-c3cccc(F)c3Cl)cc2C(=O)N2Cc3ccccc3C[C@H]2CO)n1 [Example 42] | 6.37 to 7.21 | 7.08 to 10.2 |
| CCCCN(CCCC)C(=O)c1cc(C)n(-c2ccc(-c3cnc4ccccc4c3)cc2C(=O)N2Cc3ccccc3C[C@H]2CO)n1 [Example 31] | 0.14 to 0.142 | 0.177 to 0.178 |
| CCCCN(CCCC)C(=O)c1cc(C)n(-c2ccc(-c3ccc(S(=O)(=O)N4CCCCC4)cc3)cc2C(=O)N2Cc3ccccc3C[C@H]2CO)n1 [Example 26] | 0.437 to 0.484 | 0.584 to 0.672 |
| CCCCN(CCCC)C(=O)c1nn(-c2ccc(-c3cn[nH]c3)cc2C(=O)N2Cc3ccccc3C[C@H]2CO)c(C)c1Cl [Example 14] | 0.189 to 0.213 | 0.277 to 0.315 |
| CCCCN(CCCC)C(=O)c1cc(C)n(-c2ccc(-c3ccc(NC(C)=O)cc3)cc2C(=O)N2Cc3ccccc3C[C@H]2CO)n1 [Example 33] | 0.339 to 0.434 | 0.455 to 0.553 |
| CCCCN(CCCC)C(=O)c1nn(-c2ccc(-c3ccccc3)cc2C(=O)N2Cc3ccccc3C[C@H]2CO)c(C)c1Cl [Example 11] | 1.4 to 1.49 | 1.48 to 1.58 |
| CCCCN(CCCC)C(=O)c1cc(C)n(-c2ccc(-c3ccc(OCC)nc3)cc2C(=O)N2Cc3ccccc3C[C@H]2CO)n1 [Example 51] | 0.656 to 0.741 | 0.856 to 0.894 |
